Read-outs that look alike come from different tables or passages of the source. Positions of bridges follow the written chain, without caps; N, C: chain ends. Non-standard residues stand in square brackets, D forms with d. Residues, ends and D or L forms follow the SMILES beside them. *: point of attachment. Trp(7-Me) = Cc1cccc2c(C[C@H](N)C(=O)O)c[nH]c12; 2Nal = N[C@@H](Cc1ccc2ccccc2c1)C(=O)O; AEF = NCCOc1ccc(C[C@H](N)C(=O)O)cc1; dNMeY = CN[C@H](Cc1ccc(O)cc1)C(=O)O; 3Pal = N[C@@H](Cc1cccnc1)C(=O)O; d3Pal = N[C@H](Cc1cccnc1)C(=O)O; Pen = CC(C)(S)[C@H](N)C(=O)O; αMeK = C[C@](N)(CCCCN)C(=O)O; dOrn = NCCC[C@@H](N)C(=O)O; Thp = NC1(C(=O)O)CCOCC1; Me2NCH2CH2 = CN(C)CC*
Assay: Exposed Polar Surface Area (EPSA)
Type: physicochemical
Details: SFC on Chirex 3014 column, sample 1 mM DMSO stock
Description: Exposed Polar Surface Area (EPSA) is an experimental descriptor of molecular polarity obtained from chromatographic retention in supercritical fluid chromatography (SFC).
The stationary phase (Chirex 3014(S)-valine and (R)-1-(alpha-naphthyl) ethylamine) was selected for its balance of lipophilic and polar attributes and its capacity to separate compounds with wide polarity differences. The mobile phase consists of methanol (+Ammonium formate) and CO2. Polar compounds are retained stronger under these conditions and a low-slope gradient of methanol achieves elution based on increasing polarity of the mobile phase. Results are normalized using calibration standards generating a linear relationship between retention times and EPSA values. The unit of EPSA is Å^2.
Along with the measurement of compounds of interest, a series of 8 calibration standards (see Materials) are analyzed generating a linear relationship between retention times and EPSA value. The 8 compounds used as calibration standard have their own EPSA value defined by G. Goetz based on the comparison with TPSA (see G. Goetz, L. Philippe and M. Shapiro, “EPSA: A novel supercritical fluid chromatography technique enabling the design of permeable cyclic peptides,” ACS Med. Chem. Lett., vol. 5, pp. 1167-1172, 2014 for more information). The slope from the linear relationship between EPSA values of these eight compounds and their retention times is used to determine the EPSA value of each compound of interest that's measured under the same condition using the equation as below: […]
The mixture of calibrations standard is reinjected every 20 compounds to validate the stability of the retention time.
The mobile phase modifier consists of ammonium formate LC_MS grade (>99%) (CAS number 540-69-2) diluted to 20 mM in HPLC grade Methanol (MeOH, CAS number 67-56-1) and liquid C02 SFC grade (CAS number 124-38-9).
Antipyrine (CAS number: 60-80-0) Chlorpromazine hydrochloride (CAS number: 69-09-0), desipramine hydrochloride (CAS number: […]), pindolol (CAS Number: 13523-86-9), diclofenac (CAS number: 15307-79-6)), m-nitro benzoic acid (CAS number: 121-92-6), bumetanide (CAS number: 28395-03-1), furosemide (CAS number: 54-31-9) were purchased from Sigma Aldrich (Steihneim, Germany).
All analyses were performed on a ultra performance convergence chromatography (UPC™) apparatus (Waters, Milford, MA, USA) equipped with a sample manager, a binary solvent delivery pump (BSM), a column manager, a convergence manager (automated back pressure regulator), a photo diode array detector (DAD) with a high pressure flow cell, and a mass detector simple quadrupole QDa. After the UV detector, the effluent of the SFC was mixed with an eluent consist of mixture MeOH/water (+0.3% Ammonia) 95/5 delivered by a make up pump with a flow rate of 0.4 mL/min and then split to the QDa using a splitter. The instrument was controlled, and data were processed with Masslynx 4.1.
The Analyses were performed using a 4.6×50 mm Chirex 3014(S)-valine and (R)-1-(alpha- naphthyl) ethylamine column (Phenomenex, Le Pecq, France) with 5 um particle and 100A pore size. The flow rate was 4 mL/min with the outlet pressure set to 14 MPa. The injection volume was 2 μL. the mobile phase composition was varied from 5% to 60% modifier at 20%/ min in a linear gradient, holding at 60% for 1.45 min and reverting to the original 5% until the end of the run. Data are acquired during 5 min. An equilibration time of 1 min is applied between 2 injections resulting in an injection every 6 min. each sample is analyzed in duplicate, resulting in a sample to sample turnaround time of 12 min.
The column temperature was set to 35° C. The mass detector was used in full scan from 100 to 800 for small molecules and from 500 to 1200 for peptides.
Each sample is delivered by compound logistics from DMSO stock solution without dilution. The concentration is 1 mM and the volume is 60 μL.

Compound | EPSA (read-out: EPSA) [A^2] | EPSA [Å^2]
CC(=O)NCCCC[C@@H]1NC(=O)[C@H](Cc2c[nH]c3c(C)cccc23)NC(=O)[C@H]([C@@H](C)O)NC(=O)[C@H](CC(N)=O)NC(=O)[C@@H](NC(C)=O)C(C)(C)SSC(C)(C)[C@@H](C(=O)N[C@@H](Cc2ccc(OCCN)cc2)C(=O)N[C@@H](Cc2ccc3ccccc3c2)C(=O)N[C@@](C)(CCCCN)C(=O)N[C@@H](CCCCNC(C)=O)C(=O)N[C@@H](CC(N)=O)C(=O)N[C@H](Cc2ccccc2)C(=O)N(C)[C@H](Cc2ccc(O)cc2)C(N)=O)NC1=O [compound 20, MeCO-Pen(3)-N-T-7MeW-K(Ac)-Pen(3)-AEF-2Nal-aMeK-K(Ac)-N-f-NMeDTyr-CONH2] (Ac-[Pen]NT[Trp(7-Me)]K(Ac)[Pen][AEF][2Nal][αMeK]K(Ac)N[dF][dNMeY]-NH2; disulfide 1-6 (inferred)) | 168 | –
CC(=O)NCCCC[C@H](NC(=O)[C@](C)(CCCCN)NC(=O)[C@H](Cc1ccc2ccccc2c1)NC(=O)[C@H](Cc1ccc(OCCN)cc1)NC(=O)[C@H]1NC(=O)[C@H](Cc2ccc(O)cc2)NC(=O)[C@H](Cc2c[nH]c3c(C)cccc23)NC(=O)[C@H]([C@@H](C)O)NC(=O)[C@H](CC(N)=O)NC(=O)[C@@H](NC(C)=O)C(C)(C)SSC1(C)C)C(=O)N[C@@H](CC(N)=O)C(=O)N[C@H](CCCCN)C(=O)N(C)[C@H](Cc1ccc(O)cc1)C(N)=O [compound 21, MeCO-Pen(3)-N-T-7MeW-Y-Pen(3)-AEF-2Nal-aMeK-K(Ac)-N-k-NMeDTyr-CONH2] (Ac-[Pen]NT[Trp(7-Me)]Y[Pen][AEF][2Nal][αMeK]K(Ac)N[dK][dNMeY]-NH2; disulfide 1-6 (inferred)) | 152 | 170.27
CC(=O)NCCCC[C@@H]1NC(=O)[C@H](Cc2c[nH]c3c(C)cccc23)NC(=O)[C@H]([C@@H](C)O)NC(=O)[C@H](CC(N)=O)NC(=O)[C@@H](NC(C)=O)C(C)(C)SSC(C)(C)[C@@H](C(=O)N[C@@H](Cc2ccc(OCCN)cc2)C(=O)N[C@@H](Cc2ccc3ccccc3c2)C(=O)N[C@@](C)(CCCCN)C(=O)N[C@@H](CCCCNC(C)=O)C(=O)N[C@@H](CC(N)=O)C(=O)N[C@@H](Cc2cccnc2)C(=O)N(C)[C@H](Cc2ccc(O)cc2)C(N)=O)NC1=O [compound 30, MeCO-Pen(3)-N-T-7MeW-K(Ac)-Pen(3)-AEF-2Nal-aMeK-K(ac)-N-3Pya-NMeDTyr-CONH2] (Ac-[Pen]NT[Trp(7-Me)]K(Ac)[Pen][AEF][2Nal][αMeK]K(Ac)N[3Pal][dNMeY]-NH2; disulfide 1-6) | 166 | –
CC(=O)NCCCC[C@@H]1NC(=O)[C@H](Cc2c[nH]c3c(C)cccc23)NC(=O)[C@H]([C@@H](C)O)NC(=O)[C@H](CC(N)=O)NC(=O)[C@@H](NC(C)=O)C(C)(C)SSC(C)(C)[C@@H](C(=O)N[C@@H](Cc2ccc(OCCN(C)C)cc2)C(=O)N[C@@H](Cc2ccc3ccccc3c2)C(=O)N[C@@](C)(CCCCN)C(=O)N[C@@H](CCCCNC(C)=O)C(=O)N[C@@H](CC(N)=O)C(=O)NC2(C(N)=O)CCOCC2)NC1=O [compound 31] (Ac-[Pen]NT[Trp(7-Me)]K(Ac)[Pen]Y(Me2NCH2CH2)[2Nal][αMeK]K(Ac)N[Thp]-NH2; disulfide 1-6) | 158 | –
CC(=O)NCCCC[C@@H]1NC(=O)[C@H](Cc2c[nH]c3c(C)cccc23)NC(=O)[C@H]([C@@H](C)O)NC(=O)[C@H](CC(N)=O)NC(=O)[C@@H](NC(C)=O)C(C)(C)SSC(C)(C)[C@@H](C(=O)N[C@@H](Cc2ccc(OCCN)cc2)C(=O)N[C@@H](Cc2ccc3ccccc3c2)C(=O)N[C@@](C)(CCCCN)C(=O)N[C@@H](CCCCNC(C)=O)C(=O)N[C@@H](CC(N)=O)C(=O)N[C@H](Cc2cccnc2)C(=O)N(C)[C@H](Cc2ccc(O)cc2)C(N)=O)NC1=O [compound 32, MeCO-Pen(3)-N-T-7MeW-K(Ac)-Pen(3)-AEF-2Nal-aMeK-K(ac)-N-3pya-NMeDTyr-CONH2] (Ac-[Pen]NT[Trp(7-Me)]K(Ac)[Pen][AEF][2Nal][αMeK]K(Ac)N[d3Pal][dNMeY]-NH2; disulfide 1-6) | 166 | –

Results, then the molecule that gave them:

EPSA (read-out: EPSA) [A^2] | EPSA [Å^2] | Compound
166 | – | CC(=O)NCCCC[C@@H]1NC(=O)[C@H](Cc2c[nH]c3c(C)cccc23)NC(=O)[C@H]([C@@H](C)O)NC(=O)[C@H](CC(N)=O)NC(=O)[C@@H](NC(C)=O)C(C)(C)SSC(C)(C)[C@@H](C(=O)N[C@@H](Cc2ccc(OCCN)cc2)C(=O)N[C@@H](Cc2ccc3ccccc3c2)C(=O)N[C@@](C)(CCCCN)C(=O)N[C@@H](CCCCNC(C)=O)C(=O)N[C@@H](CC(N)=O)C(=O)N[C@@H](C(=O)N(C)[C@H](Cc2ccc(O)cc2)C(N)=O)C(C)C)NC1=O [compound 14, MeCO-Pen(3)-N-T-7MeW-K(Ac)-Pen(3)-AEF-2Nal-aMeK-K(Ac)-N-v-NMeDTyr-CONH2] (Ac-[Pen]NT[Trp(7-Me)]K(Ac)[Pen][AEF][2Nal][αMeK]K(Ac)N[dV][dNMeY]-NH2; disulfide 1-6)
168 | – | CC(=O)NCCCC[C@@H]1NC(=O)[C@H](Cc2c[nH]c3c(C)cccc23)NC(=O)[C@H]([C@@H](C)O)NC(=O)[C@H](CC(N)=O)NC(=O)[C@@H](NC(C)=O)C(C)(C)SSC(C)(C)[C@@H](C(=O)N[C@@H](Cc2ccc(OCCN)cc2)C(=O)N[C@@H](Cc2ccc3ccccc3c2)C(=O)N[C@@](C)(CCCCN)C(=O)N[C@@H](CCCCNC(C)=O)C(=O)N[C@@H](CC(N)=O)C(=O)N[C@@H](C(=O)N(C)[C@H](Cc2ccc(O)cc2)C(N)=O)[C@H](C)O)NC1=O [compound 15, MeCO-Pen(3)-N-T-7MeW-K(Ac)-Pen(3)-AEF-2Nal-aMeK-K(Ac)-N-t-NMeDTyr-CONH2] (Ac-[Pen]NT[Trp(7-Me)]K(Ac)[Pen][AEF][2Nal][αMeK]K(Ac)N[dT][dNMeY]-NH2; disulfide 1-6 (inferred))
219 | – | CC(=O)NCCCC[C@@H]1NC(=O)[C@H](Cc2c[nH]c3c(C)cccc23)NC(=O)[C@H]([C@@H](C)O)NC(=O)[C@H](CC(N)=O)NC(=O)[C@@H](NC(C)=O)C(C)(C)SSC(C)(C)[C@@H](C(=O)N[C@@H](Cc2ccc(OCCN)cc2)C(=O)N[C@@H](Cc2ccc3ccccc3c2)C(=O)N[C@@](C)(CCCCN)C(=O)N[C@@H](CCCCNC(C)=O)C(=O)N[C@@H](CC(N)=O)C(=O)N[C@H](CCCN)C(=O)N(C)[C@H](Cc2ccc(O)cc2)C(N)=O)NC1=O [compound 18, MeCO-Pen(3)-N-T-7MeW-K(Ac)-Pen(3)-AEF-2Nal-aMeK-K(Ac)-N-orn-NMeDTyr-CONH2] (Ac-[Pen]NT[Trp(7-Me)]K(Ac)[Pen][AEF][2Nal][αMeK]K(Ac)N[dOrn][dNMeY]-NH2; disulfide 1-6)
171 | – | CC(=O)NCCCC[C@@H]1NC(=O)[C@H](Cc2c[nH]c3c(C)cccc23)NC(=O)[C@H]([C@@H](C)O)NC(=O)[C@H](CC(N)=O)NC(=O)[C@@H](NC(C)=O)C(C)(C)SSC(C)(C)[C@@H](C(=O)N[C@@H](Cc2ccc(OCCN)cc2)C(=O)N[C@@H](Cc2ccc3ccccc3c2)C(=O)N[C@@](C)(CCCCN)C(=O)N[C@@H](CCCCNC(C)=O)C(=O)N[C@@H](CC(N)=O)C(=O)N[C@H](CO)C(=O)N(C)[C@H](Cc2ccc(O)cc2)C(N)=O)NC1=O [compound 19, MeCO-Pen(3)-N-T-7MeW-K(Ac)-Pen(3)-AEF-2Nal-aMeK-K(Ac)-N-s-NMeDTyr-CONH2] (Ac-[Pen]NT[Trp(7-Me)]K(Ac)[Pen][AEF][2Nal][αMeK]K(Ac)N[dS][dNMeY]-NH2; disulfide 1-6)
148 | – | CC(=O)NCCCC[C@@H]1NC(=O)[C@H](Cc2c[nH]c3c(C)cccc23)NC(=O)[C@H]([C@@H](C)O)NC(=O)[C@H](CC(N)=O)NC(=O)[C@@H](NC(C)=O)C(C)(C)SSC(C)(C)[C@@H](C(=O)N[C@@H](Cc2ccc(OCCN)cc2)C(=O)N[C@@H](Cc2ccc3ccccc3c2)C(=O)N[C@@](C)(CCCCN)C(=O)N[C@@H](CCCCNC(C)=O)C(=O)N[C@@H](CC(N)=O)C(=O)N[C@H](Cc2c[nH]cn2)C(=O)N(C)[C@H](Cc2ccc(O)cc2)C(N)=O)NC1=O [compound 26, MeCO-Pen(3)-N-T-7MeW-K(Ac)-Pen(3)-AEF-2Nal-aMeK-K(Ac)-N-h-NMeDTyr-CONH2] (Ac-[Pen]NT[Trp(7-Me)]K(Ac)[Pen][AEF][2Nal][αMeK]K(Ac)N[dH][dNMeY]-NH2; disulfide 1-6 (inferred))
